This is an account of results in publication PMC5218480 (PLoS ONE, 2017).

The assay has as its system MV-4-11 cells. The assay is described as follows: Gene expression microarray analysis (Affymetrix PrimeView) and GSEA. Format: cell-based, human. Set-up: RFU PODN (11730768_x_at) / Fold change /veh PODN (11730768_x_at) / RFU LINC00158 (11744669_a_at) / Fold change /veh LINC00158 (11744669_a_at) / RFU DUSP10 (11751237_a_at) / Fold change /veh DUSP10 (11751237_a_at) / RFU ID3 (11757404_x_at) / Fold change /veh ID3 (11757404_x_at) / RFU PLEKHG5 (11737974_s_at) / Fold change /veh PLEKHG5 (11737974_s_at) / RFU LRRC4B (11730491_at) / Fold change /veh LRRC4B (11730491_at) / RFU GIMAP4 (11747438_a_at) / Fold change /veh GIMAP4 (11747438_a_at) / RFU KRT8 (11758183_x_at) / Fold change /veh KRT8 (11758183_x_at) / RFU CNN1 (11734310_a_at) / Fold change /veh CNN1 (11734310_a_at) / RFU VPS37D (11726825_at) / Fold change /veh VPS37D (11726825_at) / RFU C10orf10 (11716522_x_at) / Fold change /veh C10orf10 (11716522_x_at) / RFU KIR2DL2 /// KIR2DL4 /// KIR2DL5A /// KIR2DL5B /// KIR2DS1 /// KIR2DS2 /// KIR2DS3 /// KIR2DS4 /// KIR3DL3 /// KIR3DL3 /// KIR3DS1 (11738374_at) / Fold change /veh KIR2DL2 /// KIR2DL4 /// KIR2DL5A /// KIR2DL5B /// KIR2DS1 /// KIR2DS2 /// KIR2DS3 /// KIR2DS4 /// KIR3DL3 /// KIR3DL3 /// KIR3DS1 (11738374_at) / RFU C1QL1 (11718748_at) / Fold change /veh C1QL1 (11718748_at) / RFU TMPRSS4 (11747572_a_at) / Fold change /veh TMPRSS4 (11747572_a_at) / RFU HAMP (11756126_x_at) / Fold change /veh HAMP (11756126_x_at) / RFU RNFT2 (11725882_a_at) / Fold change /veh RNFT2 (11725882_a_at) / RFU NR4A2 (11747474_a_at) / Fold change /veh NR4A2 (11747474_a_at) / RFU ABCC12 (11746883_a_at) / Fold change /veh ABCC12 (11746883_a_at) / RFU TMEM136 (11760407_x_at) / Fold change /veh TMEM136 (11760407_x_at) / RFU CLDN22 /// WWC2 (11732394_at) / Fold change /veh CLDN22 /// WWC2 (11732394_at) / RFU HLA-DPB1 (11760878_x_at) / Fold change /veh HLA-DPB1 (11760878_x_at) / RFU SPINT1 (11716480_a_at) / Fold change /veh SPINT1 (11716480_a_at) / RFU GAP43 (11754022_s_at) / Fold change /veh GAP43 (11754022_s_at) / RFU A4GNT (11735810_at) / Fold change /veh A4GNT (11735810_at) / RFU PRB3 (11715151_x_at) / Fold change /veh PRB3 (11715151_x_at) / RFU TUBB4B (11761932_at) / Fold change /veh TUBB4B (11761932_at) / RFU CAPN14 (11732068_a_at) / Fold change /veh CAPN14 (11732068_a_at) / RFU TMCC2 (11721928_a_at) / Fold change /veh TMCC2 (11721928_a_at) / RFU IRGQ (11745062_a_at) / Fold change /veh IRGQ (11745062_a_at) / RFU FAM174B (11720279_a_at) / Fold change /veh FAM174B (11720279_a_at) / RFU TMPRSS4 (11748680_a_at) / Fold change /veh TMPRSS4 (11748680_a_at) / RFU FAM212B (11763350_a_at) / Fold change /veh FAM212B (11763350_a_at) / RFU PLEKHG5 (11743358_a_at) / Fold change /veh PLEKHG5 (11743358_a_at) / RFU ZSCAN30 (11745921_a_at) / Fold change /veh ZSCAN30 (11745921_a_at) / RFU CMKLR1 (11741424_a_at) / Fold change /veh CMKLR1 (11741424_a_at) / RFU LOC101060620 /// MAPK8IP1 (11723275_at) / Fold change /veh LOC101060620 /// MAPK8IP1 (11723275_at) / RFU SPTSSB (11747773_x_at) / Fold change /veh SPTSSB (11747773_x_at) / RFU PRSS12 (11739890_at) / Fold change /veh PRSS12 (11739890_at) / RFU BIN1 (11741810_x_at) / Fold change /veh BIN1 (11741810_x_at) / RFU WNT11 (11732464_a_at) / Fold change /veh WNT11 (11732464_a_at) / RFU C10orf10 (11716521_a_at) / Fold change /veh C10orf10 (11716521_a_at) / RFU C5orf56 (11738089_at) / Fold change /veh C5orf56 (11738089_at) / RFU CYB561 (11721691_x_at) / Fold change /veh CYB561 (11721691_x_at) / RFU ANKRD19P (11752326_a_at) / Fold change /veh ANKRD19P (11752326_a_at) / RFU OR2T12 /// OR2T33 /// OR2T8 (11738714_s_at) / Fold change /veh OR2T12 /// OR2T33 /// OR2T8 (11738714_s_at) / RFU VCAN (11748164_a_at) / Fold change /veh VCAN (11748164_a_at) / RFU JSRP1 (11732532_at) / Fold change /veh JSRP1 (11732532_at) / RFU KRTAP10-11 (11738290_x_at) / Fold change /veh KRTAP10-11 (11738290_x_at) / RFU MYO3A (11730013_a_at) / Fold change /veh MYO3A (11730013_a_at) / RFU EBF3 (11725865_a_at) / Fold change /veh EBF3 (11725865_a_at) / RFU CAMK2N1 (11719241_x_at) / Fold change /veh CAMK2N1 (11719241_x_at) / RFU C5orf56 (11738088_a_at) / Fold change /veh C5orf56 (11738088_a_at) / RFU OLFML3 (11715873_a_at) / Fold change /veh OLFML3 (11715873_a_at) / RFU LOC100653217 /// NTM (11731650_a_at) / Fold change /veh LOC100653217 /// NTM (11731650_a_at) / RFU MAPK11 (11762145_a_at) / Fold change /veh MAPK11 (11762145_a_at) / RFU FIZ1 (11724087_x_at) / Fold change /veh FIZ1 (11724087_x_at) / RFU OASL (11726364_x_at) / Fold change /veh OASL (11726364_x_at) / RFU SOX15 (11748057_x_at) / Fold change /veh SOX15 (11748057_x_at) / RFU CD79A (11719716_a_at) / Fold change /veh CD79A (11719716_a_at) / RFU HIST1H1D (11736915_at) / Fold change /veh HIST1H1D (11736915_at) / RFU CASKIN2 (11723855_a_at) / Fold change /veh CASKIN2 (11723855_a_at) / RFU LOC730098 (11760151_x_at) / Fold change /veh LOC730098 (11760151_x_at) / RFU OR4N2 (11742367_at) / Fold change /veh OR4N2 (11742367_at) / RFU PRRT2 (11749266_a_at) / Fold change /veh PRRT2 (11749266_a_at) / RFU SNX32 (11753110_a_at) / Fold change /veh SNX32 (11753110_a_at) / RFU CDHR5 (11726645_a_at) / Fold change /veh CDHR5 (11726645_a_at) / RFU RCAN1 (11760418_a_at) / Fold change /veh RCAN1 (11760418_a_at) / RFU FAM167A (11723789_a_at) / Fold change /veh FAM167A (11723789_a_at) / RFU FAM26E (11764081_at) / Fold change /veh FAM26E (11764081_at) / RFU ISYNA1 (11749810_s_at) / Fold change /veh ISYNA1 (11749810_s_at) / RFU ACY1 (11761880_at) / Fold change /veh ACY1 (11761880_at) / RFU 11764098_at / Fold change /veh 11764098_at / RFU SAMD14 (11745864_x_at) / Fold change /veh SAMD14 (11745864_x_at) / RFU NPB (11741838_a_at) / Fold change /veh NPB (11741838_a_at) / RFU TMPRSS6 (11731388_a_at) / Fold change /veh TMPRSS6 (11731388_a_at) / RFU KRTAP10-2 (11738614_at) / Fold change /veh KRTAP10-2 (11738614_at) / RFU ARHGAP8 /// PRR5-ARHGAP8 (11727945_x_at) / Fold change /veh ARHGAP8 /// PRR5-ARHGAP8 (11727945_x_at) / RFU KRTAP5-7 /// NADSYN1 (11734609_at) / Fold change /veh KRTAP5-7 /// NADSYN1 (11734609_at) / RFU RASL12 (11751679_a_at) / Fold change /veh RASL12 (11751679_a_at) / RFU CDKN2B (11736163_a_at) / Fold change /veh CDKN2B (11736163_a_at) / RFU PRF1 (11729649_at) / Fold change /veh PRF1 (11729649_at) / RFU, ZNF638 /// ZNF638-IT1 / Fold change vs veh, ZNF638 /// ZNF638-IT1 / RFU, PANK3 / Fold change vs veh, PANK3 / RFU, SH3YL1 / Fold change vs veh, SH3YL1 / RFU, ZEB2 / Fold change vs veh, ZEB2 / RFU, NRIP1 / Fold change vs veh, NRIP1 / RFU, PTTG1IP / Fold change vs veh, PTTG1IP / RFU, CAPN2 / Fold change vs veh, CAPN2 / RFU, MED14 / Fold change vs veh, MED14 / RFU, SNORA58 / Fold change vs veh, SNORA58 / RFU, C1orf63 / Fold change vs veh, C1orf63 / RFU, LRRFIP1 / Fold change vs veh, LRRFIP1 / RFU, NDUFAF7 / Fold change vs veh, NDUFAF7 / RFU, SLC12A2 / Fold change vs veh, SLC12A2 / RFU, IBTK / Fold change vs veh, IBTK / RFU, ESF1 / Fold change vs veh, ESF1 / Fold change vs veh, TMEM50B / RFU, TAOK1 / Fold change vs veh, TAOK1 / RFU, ACBD3 / Fold change vs veh, ACBD3 / RFU, TMA16 / Fold change vs veh, TMA16 / RFU, RWDD3 / Fold change vs veh, RWDD3 / RFU, BCAT1 / Fold change vs veh, BCAT1 / RFU, EDEM3 / Fold change vs veh, EDEM3 / RFU, TMEM33 / Fold change vs veh, TMEM33 / RFU, WDR75 / Fold change vs veh, WDR75 / RFU, AHCTF1 / Fold change vs veh, AHCTF1 / RFU, TFRC / Fold change vs veh, TFRC / RFU, ZDHHC17 / Fold change vs veh, ZDHHC17 / RFU, NOM1 / Fold change vs veh, NOM1 / RFU, ARL8B / Fold change vs veh, ARL8B / RFU, ZBTB11 / Fold change vs veh, ZBTB11 / RFU, TAMM41 / Fold change vs veh, TAMM41 / RFU, KIAA1704 /// LOC100996395 / Fold change vs veh, KIAA1704 /// LOC100996395 / RFU, ING1 / Fold change vs veh, ING1 / RFU, TRMT61B / Fold change vs veh, TRMT61B / RFU, FUBP3 / Fold change vs veh, FUBP3 / RFU, TP53 / Fold change vs veh, TP53 / RFU, TNKS2 / Fold change vs veh, TNKS2 / RFU, ZFP14 / Fold change vs veh, ZFP14 / RFU, ACTR2 / Fold change vs veh, ACTR2 / RFU, PPP3R1 / Fold change vs veh, PPP3R1 / RFU, PIK3R1 / Fold change vs veh, PIK3R1 / RFU, HNRNPA1 / Fold change vs veh, HNRNPA1 / RFU, RNF170 / Fold change vs veh, RNF170 / RFU, ZNF28 / Fold change vs veh, ZNF28 / RFU, RNGTT / Fold change vs veh, RNGTT / RFU, OGT / Fold change vs veh, OGT / RFU, BRD1 / Fold change vs veh, BRD1 / RFU, MARS / Fold change vs veh, MARS / RFU, ZNF655 / Fold change vs veh, ZNF655 / RFU, FAHD1 / Fold change vs veh, FAHD1 / RFU, BDP1 / Fold change vs veh, BDP1 / RFU, LRRCC1 / Fold change vs veh, LRRCC1 / RFU, ARID1A / Fold change vs veh, ARID1A / RFU, ZNF146 / Fold change vs veh, ZNF146 / RFU, ZNF330 / Fold change vs veh, ZNF330 / RFU, GPN3 / Fold change vs veh, GPN3 / RFU, C9orf123 / Fold change vs veh, C9orf123 / RFU, N4BP2L2 / Fold change vs veh, N4BP2L2 / RFU, ARFIP1 / Fold change vs veh, ARFIP1 / RFU, FAM179B / Fold change vs veh, FAM179B / RFU, BCL10 / Fold change vs veh, BCL10 / RFU, UHRF1BP1L / Fold change vs veh, UHRF1BP1L / RFU, BET1 / Fold change vs veh, BET1 / RFU, CNOT2 / Fold change vs veh, CNOT2 / RFU, ZNF268 / Fold change vs veh, ZNF268 / Fold change vs veh, ZNF507 / RFU, DGCR2 / Fold change vs veh, DGCR2 / RFU, WDSUB1 / Fold change vs veh, WDSUB1 / Fold change vs veh, HSP90B1 /// MIR3652 / RFU, ADSS / Fold change vs veh, ADSS / RFU, GK / Fold change vs veh, GK / RFU, ZNF148 / Fold change vs veh, ZNF148 / RFU, TAF9 / Fold change vs veh, TAF9 / RFU, SLC1A5 / Fold change vs veh, SLC1A5 / RFU, SLMO2 / Fold change vs veh, SLMO2 / RFU, ABCC4 / Fold change vs veh, ABCC4 / RFU, LOC101060439 /// RAP1B / Fold change vs veh, LOC101060439 /// RAP1B / RFU, RFX7 / Fold change vs veh, RFX7 / RFU, GTPBP10 / Fold change vs veh, GTPBP10 / RFU, CNEP1R1 / Fold change vs veh, CNEP1R1 / RFU, BIVM-ERCC5 /// ERCC5 / Fold change vs veh, BIVM-ERCC5 /// ERCC5 / RFU, ILF3 / Fold change vs veh, ILF3 / RFU 11762660_at / Fold change /veh 11762660_at / RFU VCAN (11757783_s_at) / Fold change /veh VCAN (11757783_s_at) / RFU DDX43 (11728927_at) / Fold change /veh DDX43 (11728927_at) / RFU KRT8 (11758188_x_at) / Fold change /veh KRT8 (11758188_x_at) / RFU NKD1 (11759106_at) / Fold change /veh NKD1 (11759106_at) / RFU SRD5A1 (11742802_a_at) / Fold change /veh SRD5A1 (11742802_a_at) / RFU TPSAB1 /// TPSB2 (11721975_s_at) / Fold change /veh TPSAB1 /// TPSB2 (11721975_s_at) / RFU GSTM3 (11746129_a_at) / Fold change /veh GSTM3 (11746129_a_at) / RFU IL23R (11737362_x_at) / Fold change /veh IL23R (11737362_x_at) / RFU TMEM51 (11727254_a_at) / Fold change /veh TMEM51 (11727254_a_at) / RFU PIWIL2 (11732686_x_at) / Fold change /veh PIWIL2 (11732686_x_at) / RFU ORM1 (11744905_x_at) / Fold change /veh ORM1 (11744905_x_at) / RFU CCDC152 (11743942_at) / Fold change /veh CCDC152 (11743942_at) / RFU ECM1 (11717891_a_at) / Fold change /veh ECM1 (11717891_a_at) / RFU IL23R (11748794_a_at) / Fold change /veh IL23R (11748794_a_at) / RFU TNFAIP8L3 (11732012_x_at) / Fold change /veh TNFAIP8L3 (11732012_x_at) / RFU MBOAT4 (11741988_at) / Fold change /veh MBOAT4 (11741988_at) / RFU 11764193_at / Fold change /veh 11764193_at / RFU TMEM53 (11763286_at) / Fold change /veh TMEM53 (11763286_at) / RFU MAGEB2 (11727129_at) / Fold change /veh MAGEB2 (11727129_at) / RFU TMEM200A (11744735_a_at) / Fold change /veh TMEM200A (11744735_a_at) / RFU CCDC152 (11751479_a_at) / Fold change /veh CCDC152 (11751479_a_at) / RFU FAM211A (11726209_a_at) / Fold change /veh FAM211A (11726209_a_at) / RFU RGS16 (11746705_a_at) / Fold change /veh RGS16 (11746705_a_at) / RFU VCAN (11755009_s_at) / Fold change /veh VCAN (11755009_s_at) / RFU RHOB (11743442_s_at) / Fold change /veh RHOB (11743442_s_at) / RFU RGS16 (11720943_a_at) / Fold change /veh RGS16 (11720943_a_at) / RFU RGS16 (11720944_at) / Fold change /veh RGS16 (11720944_at) / RFU, VPS4B / Fold change vs veh, VPS4B / RFU, CREB1 / Fold change vs veh, CREB1 / RFU, DNAJC13 / Fold change vs veh, DNAJC13 / RFU, GNAQ / Fold change vs veh, GNAQ / RFU, CDK5R1 / Fold change vs veh, CDK5R1 / RFU, ZRANB3 / Fold change vs veh, ZRANB3 / RFU, CUL4A / Fold change vs veh, CUL4A / RFU, CCNY / Fold change vs veh, CCNY / RFU, UFL1 / Fold change vs veh, UFL1 / RFU, COG3 / Fold change vs veh, COG3 / RFU, DIAPH2 / Fold change vs veh, DIAPH2 / RFU, SKA2 / Fold change vs veh, SKA2 / RFU, AFF3 / Fold change vs veh, AFF3 / RFU, LMF1 / Fold change vs veh, LMF1 / RFU, IPO11 / Fold change vs veh, IPO11 / RFU, DFFB / Fold change vs veh, DFFB / RFU, FOXP1 / Fold change vs veh, FOXP1 / RFU, CARD8 / Fold change vs veh, CARD8 / RFU, STRN3 / Fold change vs veh, STRN3 / RFU, ADK / Fold change vs veh, ADK / RFU, RASSF2 / Fold change vs veh, RASSF2 / RFU, WIPF1 / Fold change vs veh, WIPF1 / RFU, LARP1B / Fold change vs veh, LARP1B / RFU, RASA1 / Fold change vs veh, RASA1 / RFU, RB1 / Fold change vs veh, RB1 / RFU, PPFIA1 / Fold change vs veh, PPFIA1 / RFU, MAT2A / Fold change vs veh, MAT2A / RFU, CCT5 / Fold change vs veh, CCT5 / RFU, WDR92 / Fold change vs veh, WDR92 / RFU, CUX1 / Fold change vs veh, CUX1 / RFU, TTC7A / Fold change vs veh, TTC7A / RFU, TMEM135 / Fold change vs veh, TMEM135 / RFU, DEPTOR / Fold change vs veh, DEPTOR / RFU, CPM / Fold change vs veh, CPM / RFU, DNAJB6 / Fold change vs veh, DNAJB6 / RFU, CACNA2D3 / Fold change vs veh, CACNA2D3 / RFU, DTX4 / Fold change vs veh, DTX4 / RFU, TFCP2 / Fold change vs veh, TFCP2 / RFU, GMCL1 /// GMCL1P1 / Fold change vs veh, GMCL1 /// GMCL1P1 / RFU, AEBP2 / Fold change vs veh, AEBP2 / RFU, SNHG1 /// SNORD22 /// SNORD25 /// SNORD26 /// SNORD27 /// SNORD28 /// SNORD29 /// SNORD31 / Fold change vs veh, SNHG1 /// SNORD22 /// SNORD25 /// SNORD26 /// SNORD27 /// SNORD28 /// SNORD29 /// SNORD31 / Fold change (Aza/veh), C12orf56 (ProbeSet 11735607_a_at) / Fold change (ACY-1035/veh), C12orf56 (ProbeSet 11735607_a_at) / Fold change (Aza/veh), FGFR1OP (ProbeSet 11751329_s_at) / Fold change (ACY-1035/veh), FGFR1OP (ProbeSet 11751329_s_at) / Fold change (Aza/veh), VPS36 (ProbeSet 11739960_a_at) / Fold change (ACY-1035/veh), VPS36 (ProbeSet 11739960_a_at) / RFU SYPL1 (11715823_x_at) / Fold change /veh SYPL1 (11715823_x_at) / RFU IGFBP7 (11715501_s_at) / Fold change /veh IGFBP7 (11715501_s_at) / RFU REEP3 (11722064_at) / Fold change /veh REEP3 (11722064_at) / RFU IGLL1 (11728026_x_at) / Fold change /veh IGLL1 (11728026_x_at): dose or concentration left out as unconfirmed. The following applies: MV-4-11 cells, 48 hours.

As for `Nc1ncn([C@@H]2O[C@H](CO)[C@@H](O)[C@H]2O)c(=O)n1` [azacitidine], the “Fold change /veh CCDC152 (11743942_at)” value was determined as 1.57.
